The values below come from paper PMC9911596 (Nature Communications, 2023).

The assay concerns the target T1, Vtc1/Vtc3/Vtc4 complex (VTC complex) (Saccharomyces cerevisiae, UniProt P47075+Q02725, Q02725:K126A/Q02725:K129A/Q02725:K133A).
T1 construct: full-length subunits co-expressed in Expi293F; Vtc1 C-terminal HA, Vtc3 N-terminal 3xFlag, Vtc4 C-terminal 2xStrep; detergent-purified; 3:1:1 pentamer; with Vacuolar transporter chaperone complex subunit 1
T1 sequence (P47075 1-721): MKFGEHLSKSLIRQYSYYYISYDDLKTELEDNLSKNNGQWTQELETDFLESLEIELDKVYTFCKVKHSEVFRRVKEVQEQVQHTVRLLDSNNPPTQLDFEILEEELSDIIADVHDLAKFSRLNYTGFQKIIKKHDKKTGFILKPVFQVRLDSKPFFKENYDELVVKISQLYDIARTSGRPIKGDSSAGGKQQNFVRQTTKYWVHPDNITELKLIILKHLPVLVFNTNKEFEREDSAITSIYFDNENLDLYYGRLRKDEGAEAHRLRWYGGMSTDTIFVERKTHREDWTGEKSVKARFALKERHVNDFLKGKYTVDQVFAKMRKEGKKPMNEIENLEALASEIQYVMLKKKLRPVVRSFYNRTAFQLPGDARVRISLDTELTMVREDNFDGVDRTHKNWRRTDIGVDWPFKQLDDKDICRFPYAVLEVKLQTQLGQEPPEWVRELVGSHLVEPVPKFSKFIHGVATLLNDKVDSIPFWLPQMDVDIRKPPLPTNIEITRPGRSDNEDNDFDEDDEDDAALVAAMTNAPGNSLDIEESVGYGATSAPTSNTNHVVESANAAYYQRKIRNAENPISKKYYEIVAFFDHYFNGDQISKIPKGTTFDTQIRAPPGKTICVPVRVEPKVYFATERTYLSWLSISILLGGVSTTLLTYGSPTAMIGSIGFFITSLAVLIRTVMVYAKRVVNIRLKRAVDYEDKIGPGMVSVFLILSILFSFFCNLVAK
T1 sequence (Q02725 1-835 K126A/K129A/K133A): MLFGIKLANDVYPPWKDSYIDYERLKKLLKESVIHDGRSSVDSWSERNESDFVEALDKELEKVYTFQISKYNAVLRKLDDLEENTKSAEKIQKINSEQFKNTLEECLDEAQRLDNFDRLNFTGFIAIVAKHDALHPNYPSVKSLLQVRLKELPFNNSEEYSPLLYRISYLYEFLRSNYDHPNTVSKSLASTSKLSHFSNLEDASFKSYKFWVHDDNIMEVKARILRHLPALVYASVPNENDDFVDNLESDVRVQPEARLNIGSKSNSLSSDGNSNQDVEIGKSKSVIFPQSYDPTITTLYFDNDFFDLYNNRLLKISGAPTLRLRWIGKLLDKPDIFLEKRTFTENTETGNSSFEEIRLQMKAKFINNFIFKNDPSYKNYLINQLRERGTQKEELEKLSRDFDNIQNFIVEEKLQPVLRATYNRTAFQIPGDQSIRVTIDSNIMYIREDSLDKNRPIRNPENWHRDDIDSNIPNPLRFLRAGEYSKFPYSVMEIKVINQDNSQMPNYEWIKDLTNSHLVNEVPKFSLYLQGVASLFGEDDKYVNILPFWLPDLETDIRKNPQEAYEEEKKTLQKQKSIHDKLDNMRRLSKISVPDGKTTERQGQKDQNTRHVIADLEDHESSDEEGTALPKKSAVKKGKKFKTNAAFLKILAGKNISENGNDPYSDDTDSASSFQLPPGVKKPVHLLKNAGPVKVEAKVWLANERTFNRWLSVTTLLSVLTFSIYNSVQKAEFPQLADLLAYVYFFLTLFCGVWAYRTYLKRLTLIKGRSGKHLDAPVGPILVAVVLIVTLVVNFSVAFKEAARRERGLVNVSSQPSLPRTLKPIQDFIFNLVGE
T1 sequence (P40046 2-129 partner): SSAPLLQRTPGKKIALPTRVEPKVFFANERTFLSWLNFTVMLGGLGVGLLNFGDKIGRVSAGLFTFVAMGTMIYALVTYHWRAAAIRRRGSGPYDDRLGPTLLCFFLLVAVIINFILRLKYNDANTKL
In words: polyP synthesis, TBE-PAGE. To be noted: activator; 15 mM ATP, 10 mM MgCl2, 1 mM MnCl2, 0.5 mM pyrophosphate, 27 °C, 4 h; SPX KSC mutant. The class given is biochemical.

In the case of `O=P(O)(O)O[C@H]1[C@H](OP(=O)(O)O)[C@@H](OP(=O)(O)O)[C@H](OP(=O)(O)O)[C@@H](OP(=O)(O)O)[C@H]1OP(=O)(O)O` [InsP6], the “polyP synthesis, TBE-PAGE” value is on record as “residues had little effect on polyP synthesis”.
